According to patent US11471468B2, “Methods and systems for conditioning of particulate crystalline materials” (Pearl Therapeutics, Inc., priority 2013, dated 2022):

Experiments:
Type in all cases: physicochemical
[1] = Amorphous content by (dynamic) vapor sorption; conditions: for % Amorphous Content Initial: micronized GP batches; for Calculated Amorphous Content, Collector 1 / Calculated Amorphous Content, Collector 2: conditioned GP, dynamic vapor sorption, n=2 replicates per collector
Description: (§1) A portion of the micronized GP was also conditioned using an in-process conditioning system wherein nitrogen conditioning gas was supplied to the in-process conditioning system and was controlled for flow rate, temperature and humidity. The conditioning gas was humidified through a droplet evaporation chamber after which it was directed to a mixing zone. In the mixing zone, the conditioning gas was mixed with the jet-milled aerosol comprising the micronized GP. The aerosol then entered a conditioning zone where annealing of the micronized GP occurred. The particle residence time through the conditioning zone was adjusted by means of the conditioning zone chamber geometry and/or the gas flow rate through the conditioning zone chamber. After passing through the conditioning zone, the micronized GP particles reached the cyclone-collection zone where the solid particles were separated from the gas phase and transported to a collection vessel. Upon completion of the batch processing, the collector was disengaged and transferred to a glove box for sampling. The sampling occurred in a <5% relative humidity environment. Samples were then analyzed for particle size distribution and amorphous content.
The amorphous content by vapor sorption and particle morphology for both batches were also assessed. FIG. 9 provides the ethanol vapor sorption isotherm at 25° C. for both batches of micronized budesonide.
The amorphous content by vapor sorption and particle morphology for both batches were also assessed. FIG. 11 provides the ethanol vapor sorption isotherm at 25° C. for both batches of micronized fluticasone.
All batches were also analyzed for amorphous content by dynamic vapor sorption using n=2 replicates per collector.
The amorphous content by vapor sorption and particle morphology for both batches of micronized sucrose were also assessed. FIG. 13 provides the water vapor sorption isotherm at 25° C. for both batches of micronized sucrose.

[2] = Residual solvent content by GC analysis
Protocol: Residual solvent content of the material from different batches was also analyzed. […] Residual solvent is partially removed using primary (ethanol) and secondary (water) conditioning.
Compound A (IUPAC: 7-[(1R)-2-[2-[2-fluoro-5-[[4-(2-isopropylthiazole-4-carbonyl)-1-oxa-4,9-diazaspiro[5.5]undecan-9-yl]methyl]phenyl]ethylamino]-1-hydroxy-ethyl]-4-hydroxy-3H-1,3-benzothiazol-2-one; di[[(1S,4R)-7,7-dimethyl-2-oxo-norbornan-1-yl]methanesulfonic acid] salt) was received with a 3.8% ethanol residual content. This material had been previously micronized and conditioned according to the present description to reduce the presence of isopropyl (IPA) and ethanol (EtOH) by solvent exchange/removal. The material was exposed to another conditioning gas that included water vapor, and was mixed with the conditioning gas in a conditioning zone for approximately 1.5 hours.

[3] = Particle size distribution by laser diffraction (Sympatec) after processing; conditions: for D10 / D50 / D90: Compound A, PSD; for X10: micronized GP, sampled immediately after processing
[4] = as above; conditions: for X50 / X90: micronized GP, sampled immediately after processing; for D10 / D50 / D90: micronized/annealed GP, scale-up ~1 kg batches, mean of n=3 replicates per collector; for Physical stability after micronization judged from size distribution: laser diffraction, Tables 4 and 5
Description: When referred to herein, the term “optical diameter” indicates the size of a particle as measured using a laser diffraction particle size analyzer equipped with a dry powder dispenser (e.g., Sympatec GmbH, Clausthal-Zellerfeld, Germany).
as §1
Both micronized sucrose batches were analyzed for particle size distribution by Sympatec laser diffraction.

[5] = Compound A batches of Example 6, residual solvent, listed as Compound A, 30° C./55% RS, 30° C./70% RH
[6] = Compound A batches of Example 6, residual solvent, listed as Compound A, Raw (un-milled)
[7] = Compound A batches of Example 6
[8] = Compound A batches of Example 6, residual solvent
[9] = listed as Batch A - Collector 1
[10] = listed as Batch A - Collector 2
[11] = listed as Batch C - Collector 1
[12] = listed as Batch C - Collector 2
[13] = micronized Compound A of Example 7, before/after about […] with water-vapor conditioning gas
[14] = listed as Batch B - Collector 1
[15] = listed as Batch B - Collector 2

With `C[N+]1(C)CCC(OC(=O)C(O)(c2ccccc2)C2CCCC2)C1` (centres unmarked) [Batch 2G, Glycopyrrolate] the “% Amorphous Content Initial” value [1] was 2.3%.
With “7-[(1R)-2-[2-[2-fluoro-5-[[4-(2-isopropylthiazole-4-carbonyl)-1-oxa-4,9-diazaspiro[5.5]undecan-9-yl]methyl]phenyl]ethylamino]-1-hydroxy-ethyl]-4-hydroxy-3H-1,3-benzothiazol-2-one; di[[(1S,4R)-7,7-dimethyl-2-oxo-norbornan-1-yl]methanesulfonic acid] salt [Compound A, 30° C./55% RS (ethanol); 30° C./70% RH (water)]” the “% EtOH (w/w)” value [2, 5] was 1.2% (w/w), the “% IPA (w/w)” value [2, 5] was 2.1% (w/w) and the “% Water” value ([2]; Compound A batches of Example 6, listed as Compound A, 30° C./55% RS, 30° C./70% RH) was 3.4%. The D10 [3] was 0.6 μm, the D50 [3] was 1.7 μm and the D90 [3] was 3.2 μm.
Molecule `C[N+]1(C)CCC(OC(=O)C(O)(c2ccccc2)C2CCCC2)C1` (centres unmarked) [Micronized GP, In-Process Conditioning, Glycopyrrolate] has an X50 [4] of 1.5 μm, an X90 [4] of 3.1 μm and an X10 [3] of 0.6 μm.
With “7-[(1R)-2-[2-[2-fluoro-5-[[4-(2-isopropylthiazole-4-carbonyl)-1-oxa-4,9-diazaspiro[5.5]undecan-9-yl]methyl]phenyl]ethylamino]-1-hydroxy-ethyl]-4-hydroxy-3H-1,3-benzothiazol-2-one; di[[(1S,4R)-7,7-dimethyl-2-oxo-norbornan-1-yl]methanesulfonic acid] salt [Compound A, Raw (Un-milled)]” the “% EtOH (w/w)” value [2, 6] was 0.0% (w/w), the “% IPA (w/w)” value [2, 6] was 4.7% (w/w) and the “% Water” value ([2]; Compound A batches of Example 6, listed as Compound A, Raw (un-milled)) was 3.1%. The D10 [3] was 1.1 μm, the D50 [3] was 3.7 μm and the D90 [3] was 16.3 μm.
In the case of “7-[(1R)-2-[2-[2-fluoro-5-[[4-(2-isopropylthiazole-4-carbonyl)-1-oxa-4,9-diazaspiro[5.5]undecan-9-yl]methyl]phenyl]ethylamino]-1-hydroxy-ethyl]-4-hydroxy-3H-1,3-benzothiazol-2-one; di[[(1S,4R)-7,7-dimethyl-2-oxo-norbornan-1-yl]methanesulfonic acid] salt [Compound A, 30° C./70% RH]”, the “% Water” value [2, 7] was 3.4%, the “% EtOH (w/w)” value [2, 8] was 0.1% (w/w) and the “% IPA (w/w)” value [2, 8] was 3.6% (w/w). The D10 [3] was 0.6 μm, the D50 [3] was 1.6 μm and the D90 [3] was 3.1 μm.
With `C[N+]1(C)CCC(OC(=O)C(O)(c2ccccc2)C2CCCC2)C1` (centres unmarked) [Batch 1A, Glycopyrrolate] the “% Amorphous Content Initial” value [1] was 17.9%.
In the case of `C[N+]1(C)CCC(OC(=O)C(O)(c2ccccc2)C2CCCC2)C1` (centres unmarked) [Batch 2F, Glycopyrrolate], the “% Amorphous Content Initial” value [1] was 0.9%.
In the case of `C[N+]1(C)CCC(OC(=O)C(O)(c2ccccc2)C2CCCC2)C1` (single isomer, unassigned) [Batch A, Glycopyrrolate], the “Calculated Amorphous Content, Collector 1” value [1] was 2.65%, the “Calculated Amorphous Content, Collector 2” value [1] was 2.35% and the D10 [4, 9] was 0.52 μm. The D50 [4, 9] was 1.48 μm, the D90 [4, 9] was 3.02 μm and the D10 [4, 10] was 0.52 μm. The D50 [4, 10] was 1.47 μm and the D90 [4, 10] was 2.99 μm.
With `C[N+]1(C)CCC(OC(=O)C(O)(c2ccccc2)C2CCCC2)C1` (centres unmarked) [Batch 2E, Glycopyrrolate] the “% Amorphous Content Initial” value [1] was 2.6%.
`C[N+]1(C)CCC(OC(=O)C(O)(c2ccccc2)C2CCCC2)C1` (centres unmarked) [Micronized GP, Standard Jet Milling, Glycopyrrolate] gave an X50 [4] of 1.4 μm, an X90 [4] of 3.0 μm and an X10 [3] of 0.5 μm.
For `C[N+]1(C)CCC(OC(=O)C(O)(c2ccccc2)C2CCCC2)C1` (single isomer, unassigned) [Batch C, Glycopyrrolate], the “Calculated Amorphous Content, Collector 1” value [1] was 2.65%, the “Calculated Amorphous Content, Collector 2” value [1] was 2.45% and the D10 [4, 11] was 0.52 μm. For the same molecule, the D50 [4, 11] was 1.47 μm, the D90 [4, 11] was 3.03 μm and the D10 [4, 12] was 0.51 μm. The D50 [4, 12] was 1.45 μm and the D90 [4, 12] was 2.96 μm.
For `C[N+]1(C)CCC(OC(=O)C(O)(c2ccccc2)C2CCCC2)C1` (centres unmarked) [Batch 2D, Glycopyrrolate], the “% Amorphous Content Initial” value [1] was 0.9%.
For “7-[(1R)-2-[2-[2-fluoro-5-[[4-(2-isopropylthiazole-4-carbonyl)-1-oxa-4,9-diazaspiro[5.5]undecan-9-yl]methyl]phenyl]ethylamino]-1-hydroxy-ethyl]-4-hydroxy-3H-1,3-benzothiazol-2-one; di[[(1S,4R)-7,7-dimethyl-2-oxo-norbornan-1-yl]methanesulfonic acid] salt [Compound A, Unannealed]”, the “% Water” value [2, 7] was 3.0%, the “% EtOH (w/w)” value [2, 8] was 0.2% (w/w) and the “% IPA (w/w)” value [2, 8] was 3.9% (w/w). The D10 [3] was 0.6 μm, the D50 [3] was 1.6 μm and the D90 [3] was 3.1 μm.
With `CCCC1O[C@@H]2C[C@H]3[C@@H]4CCC5=CC(=O)C=C[C@]5(C)[C@H]4[C@@H](O)C[C@]3(C)[C@]2(C(=O)CO)O1` (some centres unmarked) [Micronized Budesonide, Batch 2 (annealed)] the “Physical stability after micronization judged from size distribution” value [4] was “good physical stability”.
In the case of “7-[(1R)-2-[2-[2-fluoro-5-[[4-(2-isopropylthiazole-4-carbonyl)-1-oxa-4,9-diazaspiro[5.5]undecan-9-yl]methyl]phenyl]ethylamino]-1-hydroxy-ethyl]-4-hydroxy-3H-1,3-benzothiazol-2-one; di[[(1S,4R)-7,7-dimethyl-2-oxo-norbornan-1-yl]methanesulfonic acid] salt [Compound A]”, the “Ethanol residual content as received” value ([2]; Compound A as received, Example 7) was 3.8% and the “Residual isopropyl alcohol solvent after manufacture” value ([2]; Compound A before micronization, Example 6) was roughly 5%.
With `C[N+]1(C)CCC(OC(=O)C(O)(c2ccccc2)C2CCCC2)C1` (centres unmarked) [Batch 2C, Glycopyrrolate] the “% Amorphous Content Initial” value [1] was 0.9%.
In the case of “7-[(1R)-2-[2-[2-fluoro-5-[[4-(2-isopropylthiazole-4-carbonyl)-1-oxa-4,9-diazaspiro[5.5]undecan-9-yl]methyl]phenyl]ethylamino]-1-hydroxy-ethyl]-4-hydroxy-3H-1,3-benzothiazol-2-one; di[[(1S,4R)-7,7-dimethyl-2-oxo-norbornan-1-yl]methanesulfonic acid] salt [Micronized Compound A, As Received]”, the “% EtOH (w/w)” value [2, 13] was 3.8% (w/w), the “% IPA (w/w)” value [2, 13] was 0.1% (w/w) and the “% Water” value [2, 13] was 3.1%.
In the case of `C[N+]1(C)CCC(OC(=O)C(O)(c2ccccc2)C2CCCC2)C1` (centres unmarked) [Batch 2B, Glycopyrrolate], the “% Amorphous Content Initial” value [1] was 5.3%.
In the case of `C[N+]1(C)CCC(OC(=O)C(O)(c2ccccc2)C2CCCC2)C1` (single isomer, unassigned) [Batch B, Glycopyrrolate], the “Calculated Amorphous Content, Collector 1” value [1] was 2.65%, the “Calculated Amorphous Content, Collector 2” value [1] was 2.40% and the D10 [4, 14] was 0.52 μm. For the same molecule, the D50 [4, 14] was 1.47 μm, the D90 [4, 14] was 3.02 μm and the D10 [4, 15] was 0.52 μm. It also gave a D50 [4, 15] of 1.46 μm and a D90 [4, 15] of 2.99 μm.
For “7-[(1R)-2-[2-[2-fluoro-5-[[4-(2-isopropylthiazole-4-carbonyl)-1-oxa-4,9-diazaspiro[5.5]undecan-9-yl]methyl]phenyl]ethylamino]-1-hydroxy-ethyl]-4-hydroxy-3H-1,3-benzothiazol-2-one; di[[(1S,4R)-7,7-dimethyl-2-oxo-norbornan-1-yl]methanesulfonic acid] salt [Micronized Compound A, 30° C./70% RH (water)]”, the “% EtOH (w/w)” value [2, 13] was 0.1% (w/w), the “% IPA (w/w)” value [2, 13] was 0.0% (w/w) and the “% Water” value [2, 13] was 3.6%.
In the case of `CCCC1O[C@@H]2C[C@H]3[C@@H]4CCC5=CC(=O)C=C[C@]5(C)[C@H]4[C@@H](O)C[C@]3(C)[C@]2(C(=O)CO)O1` (some centres unmarked) [Micronized Budesonide, Batch 1 (unannealed)], the “Physical stability after micronization judged from size distribution” value [4] was “potential agglomeration”.
